Legend:
P. mirabilis HI4320 = assay: Growth in carbon-limited MM with inhibitor only, P. mirabilis; type: cell-based, Proteus mirabilis; conditions: MM with sodium citrate, compound 0.5 mM
Procedure: We first addressed whether these bacteria were able to catabolize the inhibitors and potentially use them as a carbon source for growth. Each strain was grown in carbon-limited defined minimal media (MM), without any carbon source other than sodium citrate for P. mirabilis and casamino acids for S. aureus, and supplemented with 3e and 3f. […] With these promising results, bacterial growth assays were performed in MM supplemented with Neu5Ac at a concentration of 3.2 mM and with 0.5 mM of compounds 3e and 3f (Figure 6a,b). The lag phase duration was determined as the time for the initial population density to increase twofold (see the horizontal dashed lines in Figure 6a,b). The effects were significant in the case of S. aureus, where a delayed growth of 4.4 and 9.4 h (P < 0.001) for compounds 3e and 3f, respectively, was observed. In the case of P. mirabilis, compound 3e indicated a delay in growth (3 h, P = 0.06), while no effect was recorded for compound 3f.
Figure S4. S. aureus COL (A) and P. mirabilis HI4320 (B) grown in defined carbon-limited minimal media (dotted line), with the addition of compound 3e (0.5 mM, solid line) or compound 3f (0.5 mM, dashed line). Average values of two biological replicates (n=2) each including two technical replicates are presented.
(1 picture or pasted object on this page, not shown here)

SaSiaT = SaSiaT (Staphylococcus aureus, UniProt A0A0H2XJ46); assay: nanoDSF thermal shift assay, SaSiaT; type: binding; conditions: for Average 1 / Average 2 / Average 3 / Replicate 1 / Replicate 2 / Replicate 3: SaSiaT Tm; for Average 1: average of experiment 1; for Average 2: average of experiment 2; for Average 3: average of experiment 3; for Replicate 1: experiment 1, second capillary; for Replicate 1 / Replicate 2 / Replicate 3 / Tm 1 / Tm2 / Tm 3 / Overall average (Tm): 1.25 mM; for Replicate 2: experiment 2, second capillary; for Replicate 3: experiment 3, second capillary; for Tm 1 / Tm2 / Tm 3 / Overall average (Tm): SaSiaT; for Tm 1: experiment 1, first capillary; for Tm2: experiment 2, first capillary; for Tm 3: experiment 3, first capillary; for Overall average (Tm): three experiments
Sequence of SaSiaT (A0A0H2XJ46 entry or part of it): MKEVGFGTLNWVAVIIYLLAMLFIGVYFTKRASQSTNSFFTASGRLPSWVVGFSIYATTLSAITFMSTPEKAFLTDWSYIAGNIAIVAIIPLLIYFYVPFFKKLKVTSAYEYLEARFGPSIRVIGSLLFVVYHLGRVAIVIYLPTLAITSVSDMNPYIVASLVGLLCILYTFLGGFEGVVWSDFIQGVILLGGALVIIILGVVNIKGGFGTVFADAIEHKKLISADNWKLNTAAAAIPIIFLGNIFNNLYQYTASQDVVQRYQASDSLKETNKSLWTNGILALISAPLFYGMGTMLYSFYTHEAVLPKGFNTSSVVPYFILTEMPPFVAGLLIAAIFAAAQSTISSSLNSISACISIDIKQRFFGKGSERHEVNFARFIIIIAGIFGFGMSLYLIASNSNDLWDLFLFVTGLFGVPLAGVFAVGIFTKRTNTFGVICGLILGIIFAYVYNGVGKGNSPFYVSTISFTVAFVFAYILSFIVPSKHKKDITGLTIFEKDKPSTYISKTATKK
How it was run: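 Protein at 2 μM in PBS with 0.0174% (w/v) DDM and ligand at 1.25 mM were heated from 25 to 95 °C at 1 °C/min, with 330/350 nm fluorescence ratio and its first derivative giving Tm. ΔTm is relative to the Neu5Ac Tm, averaged over 3 experiments with 2 capillaries each.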

[1] = Metabolic stability in mouse liver microsomes; type: in vitro ADME; conditions: for Metabolic stability in mouse microsomes, Exp. 1 / Metabolic stability in mouse microsomes, Exp. 2: intrinsic clearance, 1 µM compound; for microsomal CLint at 1 µM: mouse liver microsomes, read-out: intrinsic clearance Clint
Procedure: The assay was run in a 96-deep well format and solutions were prepared containing microsomes in phosphate buffer. The microsomes employed were from humans, rats, and mice. The reaction was initiated by addition of NADPH after preincubation at 37 °C with test compounds. The reaction was stopped by the addition of acetonitrile (ACN) at six time points (0, 5, 10, 15, 25, and 45 min), the samples were centrifuged, and the supernatant was diluted to determine the loss of compound by LC–MS/MS. Two incubations per compound per species. For further details regarding working concentrations, volumes, and final concentrations at incubation, refer to the supplementary section (Table S6). […]
Conc. of W orki ng Vol ume i n Fi nal conc. At
sol uti on assay incubation
577 m g / m L520 µ L0. 5 m g / m L […]
NADPH i n buffe r 7. 5 m M 80 µ L 1 m M

Structure (SMILES)	ability to catabolize compound (growth vs MM only) (P. mirabilis HI4320)	Average 1 (SaSiaT) [°C]	Average 2 (SaSiaT) [°C]	Average 3 (SaSiaT) [°C]	Replicate 1 (SaSiaT) [°C]	Replicate 2 (SaSiaT) [°C]	Replicate 3 (SaSiaT) [°C]	Tm 1 (SaSiaT) [°C]	Tm2 (SaSiaT) [°C]	Tm 3 (SaSiaT) [°C]	Overall average (Tm) (SaSiaT) [°C]	Metabolic stability in mouse microsomes, Exp. 1 [1] [µL/min/mg protein]	Metabolic stability in mouse microsomes, Exp. 2 [1] [µL/min/mg protein]	microsomal CLint at 1 µM [1] [µL/min/mg]	ΔTm (SaSiaT; nanoDSF, relative to Neu5Ac, ligand 1.25 mM, <−5 °C nonbinder) [°C]
CC(=O)NC1C(OCc2cc(F)cc(F)c2)CC(O)(C(=O)O)OC1C(O)C(O)CO (stereo not shown) [Compound 3e]	no ability to catabolize	57.3	56.7	57.1	57.3	56.7	56.9	57.3	56.6	57.2	57.0	< 10	< 10	< 10	
CC(=O)NC1C(OCc2cc(Br)cc(Br)c2)CC(O)(C(=O)O)OC1C(O)C(O)CO (stereo not shown) [Compound 3f]	no ability to catabolize	53.1	54.0	54.4	53.1	54.0	54.3	53.1	54.0	54.4	53.8	< 10	< 10	< 10	2.6 ± 0.7
CC(=O)N[C@H]1[C@H]([C@H](O)[C@H](O)CO)OC(O)(C(=O)O)C[C@@H]1O (stereo partly shown) [Neu5Ac, 5-N-acetyl neuraminic acid, reference compound]		51.3	51.1	51.3	51.4	51.4	51.0	51.3	50.9	51.6	51.2				
CC(=O)NC1C(OCc2ccccc2)CC(O)(C(=O)O)OC1C(O)C(O)CO (stereo not shown) [Compound 3a]		56.2	55.7	56.3	56.1	55.8	56.1	56.2	55.7	56.6	56.1	< 10	< 10	< 10	

Source: publication PMC9295122, “Sialic Acid Derivatives Inhibit SiaT Transporters and Delay Bacterial Growth” (ACS Chemical Biology, 2022)
